Assay results reported in US20240140944A1, “NOVEL NAPHTHYRIDINONE DERIVATIVE HAVING INHIBITORY ACTIVITY AGAINST ECTONUCLEOTIDE PYROPHOSPHATASE-PHOSPHODIESTERASE AND USE THEREOF” (TXINNO BIOSCIENCE INC., priority 2020, published 2024).
pIC50: −log10 of the molar value. Where a name gives a salt, the structure may show the parent alone.

What was measured:
[1] = tested on: interferon regulatory factor 3 (IRF3) in HCT116-Dual cells; experiment: HCT116-Dual Cell Luciferase Assay (ISG54 promoter, IRF3 activity); type: cell-based; details: ENPP1 inhibitor usually 10 μM plus cGAMP 10 μM, 48 hours, Lucia luciferase
Excerpt: HCT116-Dual™ cells express genes encoding luciferase secreted under the control of the interferon-stimulated gene 54 (ISG54) promoter along with five interferon-stimulated response elements. The HCT116-Dual™ cell line was used to measure and monitor the activity of interferon regulatory factor 3 (IRF3), which induces production of type I interferon and relates to downstream signaling, and Lucia secreted in the culture medium was used to generate luminescence in a luciferase reaction.
HCT116-Dual™ cells were cultured at 2×10^4 cells/well (93.4 μL) in a 96-well plate for one day in a DMEM medium containing 10% FBS and 25 mM HEPES (pH 7.2-7.5). The cells were treated with 3.3 μL of ENPP1 inhibitor (usually 10 μM) and then 3.3 μL of cGAMP (10 μM) to set the final volume to 100 μL (The final fraction of DMSO was 0.1%). The cells treated with ENPP1 inhibitor and cGAMP were cultured at 37° C. for 48 hours and 50 μL of Quanti-Luc reaction solution was added to 20 μL of cell culture medium to measure luciferase activity. The increase in interferon regulatory factor 3 (IRF3) by the compound compared to cGAMP was determined as fold.

[2] = biological target: T1, human recombinant ENPP1 enzymes (Homo sapiens, UniProt P22413); experiment: ENPP1 Enzyme Assay with cGAMP Substrate (AMP-Glo); type: biochemical; details: human recombinant ENPP1 3 ng/reaction, cGAMP 5 μM, 37° C. 90 minutes, average of two or more tests; read-out: Enzymatic activity IC50
T1 construct: purchased R & D systems
T1 sequence (P22413 1-925): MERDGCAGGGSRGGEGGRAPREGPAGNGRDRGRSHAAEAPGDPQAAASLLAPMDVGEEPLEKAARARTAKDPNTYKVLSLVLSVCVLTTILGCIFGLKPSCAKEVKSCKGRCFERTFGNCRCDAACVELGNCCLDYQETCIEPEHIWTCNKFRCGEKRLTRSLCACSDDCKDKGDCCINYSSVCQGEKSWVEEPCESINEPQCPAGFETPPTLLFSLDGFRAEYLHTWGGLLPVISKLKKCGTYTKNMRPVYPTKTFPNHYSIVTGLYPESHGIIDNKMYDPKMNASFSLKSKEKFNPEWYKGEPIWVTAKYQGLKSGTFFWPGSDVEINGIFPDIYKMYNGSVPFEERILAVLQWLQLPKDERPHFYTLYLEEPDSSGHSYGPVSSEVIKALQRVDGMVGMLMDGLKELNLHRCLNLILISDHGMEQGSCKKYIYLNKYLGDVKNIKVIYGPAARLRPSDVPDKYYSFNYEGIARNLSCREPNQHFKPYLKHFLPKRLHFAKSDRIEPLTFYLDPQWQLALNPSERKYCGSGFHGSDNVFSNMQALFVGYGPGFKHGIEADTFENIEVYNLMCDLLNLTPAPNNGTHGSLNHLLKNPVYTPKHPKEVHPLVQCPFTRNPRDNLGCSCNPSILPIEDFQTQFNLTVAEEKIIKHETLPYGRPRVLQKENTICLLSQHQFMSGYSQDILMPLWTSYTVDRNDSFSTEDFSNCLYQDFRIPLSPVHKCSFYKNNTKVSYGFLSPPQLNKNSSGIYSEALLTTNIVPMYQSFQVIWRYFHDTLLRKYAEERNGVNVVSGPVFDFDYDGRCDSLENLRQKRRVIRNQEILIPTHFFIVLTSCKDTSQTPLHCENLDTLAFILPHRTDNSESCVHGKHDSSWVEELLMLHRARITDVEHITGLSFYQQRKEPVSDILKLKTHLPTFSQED
Procedure: ENPP1 hydrolyzes nucleotides or nucleotide derivatives to produce nucleoside-5′-monophosphate and pyrophosphate. In addition, ENPP1 hydrolyzes 2′,3′-cGAMP to produce 5′-adenosine monophosphate (AMP) and 5′-guanosine monophosphate (GMP). AMP produced from the reaction is measured using the AMP-Glo® kit (Promega). The AMP-Glo® kit contains two reagents. The first reagent terminates the AMP-producing enzymatic reaction, removes ATP and converts the produced AMP into ADP. The second reagent converts ADP to ATP which is used to generate luminescence in the luciferase reaction. The amount of luminescence measured is proportional to the amount of AMP produced by ENPP1.
The final reaction mixture contains 50 mM Tris (pH 8.5) buffer, 250 mM NaCl, 0.5 mM CaCl2), 1 μM ZnCl2, 5% glycerol and 1% DMSO. Serially diluted ENPP1 inhibitors (typically in the range of 10 μM to 0.5 nM) were pre-stored with human recombinant ENPP1 enzymes (R & D systems) at 3 ng/reaction and room temperature (RT) for 5 to 10 minutes. The reaction was initiated by addition of cGAMP (at a final concentration of 5 μM) and reacted at 37° C. for 90 minutes. At the end of the reaction, 10 μl of the AMP-Glo first reagent was added to stop the reaction and the result was stored at room temperature for 1 hour. After storage, 20 μl of an AMP detection solution (a mixture of AMP-Glo II reagent and Kinase-Glo at a ratio of 1:100) was added and stored at room temperature for 1 hour. Luminescence signals were measured using a Victor® plate reader (Perkin Elmer). The maximal activity control (containing enzymes and substrates in the presence of 1% DMSO; MAX) and the minimal activity control (containing substrates and 1% DMSO; MIN) were evaluated simultaneously. In each experiment, serially diluted reference ENPP1 inhibitors were tested as well. IC50, indicating % residual activity versus compound concentration was determined by fitting inhibition curves using the 3-parameter analysis of GraphPad Prism® software. Serially diluted samples of one compound were tested two or more times and an average IC50 of each compound was calculated.

Compound | pIC50 [2] | Cellular activity: increase in IRF3 by the compound compared to cGAMP, as fold [1]
5-(7-oxo-5,6,7,8-tetrahydro-1,8-naphthyridin-4-yl)isoindoline-2-sulfamide hydrochloride [Example 143] | – | B (1< Fold <2)
Cl.Nc1ccc(F)c(-c2ccnc3[nH]c(=O)ccc23)c1 [Example 8] | – | B (1< Fold <2)
Cl.NCc1ccc(-c2ccnc3[nH]c(=O)ccc23)cc1 [Example 10, 5-(4-(aminomethyl)phenyl)-1,8-naphthyridin-2(1H)-one hydrochloride] | > 6.00 | B (1< Fold <2)
Cl.NCc1ccc(-c2ccnc3[nH]c(=O)ccc23)c(F)c1F [Example 13, 5-(4-(aminomethyl)-2,3-difluorophenyl)-1,8-naphthyridin-2(1H)-one hydrochloride] | > 6.00 | A (>2)
CC(N)c1ccc(-c2ccnc3[nH]c(=O)ccc23)cc1.Cl (centres unmarked) [Example 14, 5-(4-(1-aminoethyl)phenyl)-1,8-naphthyridin-2(1H)-one hydrochloride] | > 6.00 | B (1< Fold <2)
Cl.O=c1ccc2c(-c3ccc(CNC4CC4)cc3F)ccnc2[nH]1 [Example 22, 5-(4-((cyclopropylamino)methyl)-2-fluorophenyl)-1,8-naphthyridin-2(1H)-one hydrochloride] | 5.00 to 6.00 | B (1< Fold <2)
CNCc1ccc(-c2ccnc3[nH]c(=O)ccc23)cc1F.Cl [Example 23, 5-(3-fluoro-4-((methylamino)methyl)phenyl)-1,8-naphthyridin-2(1H)-one hydrochloride] | 5.00 to 6.00 | B (1< Fold <2)
NS(=O)(=O)NCc1ccc(-c2ccnc3[nH]c(=O)ccc23)cc1F [Example 41, N-(2-fluoro-4-(7-oxo-7,8-dihydro-1,8-naphthyridin-4-yl)benzyl)sulfamide] | – | B (1< Fold <2)
Nc1cccc(-c2ccnc3c2CCC(=O)N3)c1 [Example 131, 5-(3-(aminophenyl)-3,4-dihydro-1,8-naphthyridin-2(1H)-one hydrochloride] | 5.00 to 6.00 | –
CC(C)(C)OC(=O)NS(=O)(=O)N1CCc2ccc(-c3ccnc4c3CCC(=O)N4)cc2C1 [Example 138, tert-butyl((7-(7-oxo-5,6,7,8-tetrahydro-1,8-naphthyridin-4-yl)-3,4-diisoquinoline-2(1H)-yl)sulfonyl)carbamate] | 5.00 to 6.00 | –
NS(=O)(=O)Nc1cccc(-c2ccnc3c2CCC(=O)N3)c1 [Example 139, N-(3-(7-oxo-5,6,7,8-tetrahydro-1,8-naphthyridin-4-yl)phenyl)sulfamide] | > 6.00 | –
NS(=O)(=O)N1CCc2ccc(Nc3ccnc4c3CCC(=O)N4)cc2C1 [Example 144, (7-(7-oxo-5,6,7,8-tetrahydro-1,8-naphthyridin-4-yl)amino)-3,4-dihydroisoquinoline-2(1H)-sulfamide hydrochloride] | > 6.00 | –
CS(=O)(=O)NCc1cccc(-c2ccnc3c2CCC(=O)N3)c1 [Example 146, N-(3-(7-oxo-5,6,7,8-tetrahydro-1,8-naphthyridin-4-yl)benzyl)methanesulfonamide] | 5.00 to 6.00 | –
Cc1ccc(S(=O)(=O)NCc2cccc(-c3ccnc4c3CCC(=O)N4)c2)cc1 [Example 147, 4-methyl-N-(3-(7-oxo-5,6,7,8-tetrahydro-1,8-naphthyridin-4-yl)benzyl)benzenesulfonamide] | > 6.00 | –

Further lines, with some results ahead:

pIC50 [2] | Compound | Cellular activity: increase in IRF3 by the compound compared to cGAMP, as fold [1]
> 6.00 | Cl.NCc1ccc(-c2ccnc3[nH]c(=O)ccc23)c(F)c1 [Example 11, 5-(4-(aminomethyl)-2-fluorophenyl)-1,8-naphthyridin-2(1H)-one hydrochloride] | A (>2)
> 6.00 | Cl.NCc1ccc(-c2ccnc3[nH]c(=O)ccc23)cc1F [Example 12, 5-(4-(aminomethyl)-3-fluorophenyl)-1,8-naphthyridin-2(1H)-one hydrochloride] | A (>2)
> 6.00 | C[C@@H](N)c1ccc(-c2ccnc3[nH]c(=O)ccc23)cc1.Cl [Example 15, (R)-5-(4-(1-aminoethyl)phenyl)-1,8-naphthyridin-2(1H)-one hydrochloride] | B (1< Fold <2)
< 5.00 | CC(C)NCc1ccc(-c2ccnc3[nH]c(=O)ccc23)c(F)c1.Cl [Example 21, 5-(2-fluoro-4-((isopropylamine)methyl)phenyl)-1,8-naphthyridin-2(1H)-one hydrochloride] | B (1< Fold <2)
< 5.00 | CCNCc1ccc(-c2ccnc3[nH]c(=O)ccc23)cc1F.Cl [Example 24, 5-(4-((ethylamino)methyl)-3-fluorophenyl)-1,8-naphthyridin-2(1H)-one hydrochloride] | B (1< Fold <2)
> 6.00 | Cn1c(=O)ccc2c(N3CCC(CNS(N)(=O)=O)CC3)ccnc21 [Example 128, N-((1-(8-methyl-7-oxo-7,8-dihydro-1,8-naphthyridin-4-yl)piperidin-4-yl)methyl)sulfamide] | –
< 5.00 | NCc1cccc(-c2ccnc3c2CCC(=O)N3)c1 [Example 132, 5-(3-(aminomethyl)phenyl)-3,4-dihydro-1,8-naphthyridin-2(1H)-one hydrochloride] | –
> 6.00 | NCc1ccc(-c2ccnc3c2CCC(=O)N3)cc1 [Example 133, 5-(4-(aminomethyl)phenyl)-3,4-dihydro-1,8-naphthyridin-2(1H)-one hydrochloride] | –
> 6.00 | CC(C)(N)c1ccc(-c2ccnc3c2CCC(=O)N3)cc1 [Example 134, 5-(4-(2-aminopropan-2-yl)phenyl)-3,4-dihydro-1,8-naphthyridin-2(1H)-one hydrochloride] | –
< 5.00 | O=C1CCc2c(-c3ccc4c(c3)CNCC4)ccnc2N1 [Example 135, 5-(1,2,3,4-tetrahydroisoquinolin-7-yl)-3,4-dihydro-1,8-naphthyridin-2(1H)-one hydrochloride] | –
> 6.00 | NS(=O)(=O)NCc1ccc(-c2ccnc3c2CCC(=O)N3)cc1 [Example 141, N-(4-(7-oxo-5,6,7,8-tetrahydro-1,8-naphthyridin-4-yl)benzyl)sulfamide] | –
